Data reported in US5098933A, “Pharmaceutically useful Michael addition products of unsaturated aldehydes and ketones and ascorbic acid” (Theracel Corporation, priority 1990, dated 1992).

Assay: Tissue biodistribution of 3H-KCPBL in mice
Format: in vivo
Settings: for Biodistribution, Bone / Biodistribution, Brain / Biodistribution, Heart / Biodistribution, Kidney / Biodistribution, Large Intestine / Biodistribution, Liver / Biodistribution, Lung / Biodistribution, Muscle / Biodistribution, Small Intestine / Biodistribution, Spleen / Biodistribution, Stomach: 100 mg/kg
Procedure: The objectives of these tests were to evaluate the pharmacokinetics of radiolabeled KCPBL when administered either perorally or intravenously to mice.
3H-KCPBL was prepared from the pure drug substance KCPBL by an exchange procedure using high specific activity tritiated water. The product was purified by reverse phase high performance liquid chromatography and then freeze-dried. Analysis was carried out on ^3 H-KCPBL reconstituted in water. Specific activity was not less than 185 GBg/mmol or 5 Ci/mmol and the molecular weight of the product is 258. HPLC analysis for purity was performed using a Zorbax C8 column (25 cm×4.6) eluting with water: acetonitrile (930:70).
In the mouse studies, 3H-KCPBL was dissolved in sterile pyrogen-free saline containing […] of non-radiolabeled KCPBL. The final concentration of the test article in an injection volume of 0.1 ml was 66.6 mcCi. One tenth ml was administered intravenously for plasma level and tissue biodistribution studies. Peroral dosages were prepared in a manner consistent with this approach.
Tissue samples were collected and assayed as described above. The tissues evaluated for KCPBL content at four and at 24 hours after test article administration were: heart, lung, kidney, liver spleen, muscle, bond, stomach, small intestine, large intestine and brain.

With `O=C1CCC(C2(O)C(=O)OC3C(O)COC32O)C1` (stereo not drawn) [KCPBL] the “tissues with highest drug levels” value (4 h, intravenous) was “liver, gastrointestinal tract, and brain”, the “tissues with highest drug levels” value (4 h, peroral) was “principally found in the kidneys and the gastrointestinal tract” and the “tissues with highest drug levels” value (24 h, intravenous) was “muscle and brain demonstrated the highest levels”. The “tissues with highest drug levels” value (24 h, peroral) was “the highest drug levels were found in muscle and brain”, the “Biodistribution, Bone” value (intravenous, 4 hour) was 12.77 ± 3.96 mcg/gm and the “Biodistribution, Brain” value (intravenous, 4 hour) was 38.60 ± 16.90 mcg/gm. For the same compound, the “Biodistribution, Heart” value (intravenous, 4 hour) was 10.45 ± 3.50 mcg/gm, the “Biodistribution, Kidney” value (intravenous, 4 hour) was 11.72 ± 1.34 mcg/gm and the “Biodistribution, Large Intestine” value (intravenous, 4 hour) was 65.57 ± 14.86 mcg/gm. For the same compound, the “Biodistribution, Liver” value (intravenous, 4 hour) was 21.20 ± 4.78 mcg/gm, the “Biodistribution, Lung” value (intravenous, 4 hour) was 2.60 ± 2.20 mcg/gm and the “Biodistribution, Muscle” value (intravenous, 4 hour) was 31.97 ± 6.09 mcg/gm. The “Biodistribution, Small Intestine” value (intravenous, 4 hour) was 58.50 ± 18.68 mcg/gm, the “Biodistribution, Spleen” value (intravenous, 4 hour) was 0.95 ± 0.36 mcg/gm and the “Biodistribution, Stomach” value (intravenous, 4 hour) was 23.79 ± 5.96 mcg/gm. The “Biodistribution, Bone” value (intravenous, 24 hour) was 4.53 ± 0.86 mcg/gm, the “Biodistribution, Brain” value (intravenous, 24 hour) was 34.80 ± 20.5 mcg/gm and the “Biodistribution, Heart” value (intravenous, 24 hour) was 2.85 ± 1.23 mcg/gm. For the same compound, the “Biodistribution, Kidney” value (intravenous, 24 hour) was 5.35 ± 3.66 mcg/gm, the “Biodistribution, Large Intestine” value (intravenous, 24 hour) was 13.67 ± 9.3 mcg/gm and the “Biodistribution, Lung” value (intravenous, 24 hour) was 1.32 ± 0.46 mcg/gm. The “Biodistribution, Muscle” value (intravenous, 24 hour) was 120.90 ± 154.0 mcg/gm, the “Biodistribution, Small Intestine” value (intravenous, 24 hour) was 9.62 ± 6.4 mcg/gm and the “Biodistribution, Spleen” value (intravenous, 24 hour) was 0.71 ± 0.23 mcg/gm. The “Biodistribution, Stomach” value (intravenous, 24 hour) was 10.36 ± 5.8 mcg/gm, the “Biodistribution, Liver” value (intravenous, 24 hour, SD: data not available) was 25.7 mcg/gm and the “Biodistribution, Bone” value (peroral, 4 hour) was 15.02 ± 13.6 mcg/gm. For the same compound, the “Biodistribution, Brain” value (peroral, 4 hour) was 35.22 ± 1.64 mcg/gm, the “Biodistribution, Heart” value (peroral, 4 hour) was 13.64 ± 4.98 mcg/gm and the “Biodistribution, Kidney” value (peroral, 4 hour) was 63.57 ± 74.0 mcg/gm. For the same compound, the “Biodistribution, Large Intestine” value (peroral, 4 hour) was 135.9 ± 32.5 mcg/gm, the “Biodistribution, Liver” value (peroral, 4 hour) was 38.03 ± 5.0 mcg/gm and the “Biodistribution, Lung” value (peroral, 4 hour) was 2.72 ± 0.38 mcg/gm. The “Biodistribution, Muscle” value (peroral, 4 hour) was 40.81 ± 3.37 mcg/gm, the “Biodistribution, Small Intestine” value (peroral, 4 hour) was 217.50 ± 267.6 mcg/gm and the “Biodistribution, Spleen” value (peroral, 4 hour) was 1.73 ± 0.29 mcg/gm. For the same compound, the “Biodistribution, Stomach” value (peroral, 4 hour) was 110.00 ± 118.0 mcg/gm, the “Biodistribution, Bone” value (peroral, 24 hour) was 10.30 ± 4.72 mcg/gm and the “Biodistribution, Brain” value (peroral, 24 hour) was 47.30 ± 33.0 mcg/gm. The “Biodistribution, Heart” value (peroral, 24 hour) was 5.13 ± 3.37 mcg/gm, the “Biodistribution, Kidney” value (peroral, 24 hour) was 10.28 ± 5.58 mcg/gm and the “Biodistribution, Large Intestine” value (peroral, 24 hour) was 21.42 ± 4.39 mcg/gm. The “Biodistribution, Liver” value (peroral, 24 hour) was 11.84 ± 9.58 mcg/gm, the “Biodistribution, Lung” value (peroral, 24 hour) was 3.73 ± 3.49 mcg/gm and the “Biodistribution, Muscle” value (peroral, 24 hour) was 188.5 ± 124.0 mcg/gm. For the same compound, the “Biodistribution, Small Intestine” value (peroral, 24 hour) was 24.45 ± 5.3 mcg/gm, the “Biodistribution, Spleen” value (peroral, 24 hour) was 1.71 ± 0.16 mcg/gm and the “Biodistribution, Stomach” value (peroral, 24 hour) was 25.72 ± 15.0 mcg/gm.
